In patent US11377425B1, “Small molecule modulators of IL-17” (LEO Pharma A/S, priority 2018, dated 2022):

molecular target: T1, human IL-17AA (Homo sapiens, UniProt Q16552); test: IL-8 release assay in human epithelial keratinocytes adult (HEKa); type: cell-based; conditions: HEKa cells, 3 ng/mL HEK-human IL-17AA + 10 ng/mL human TNFalpha; read-out: Rel EC50 IL-8 release assay
T1 construct: host or cells: HEK (human embryonic kidney) cells
T1 sequence (Q16552 24-155): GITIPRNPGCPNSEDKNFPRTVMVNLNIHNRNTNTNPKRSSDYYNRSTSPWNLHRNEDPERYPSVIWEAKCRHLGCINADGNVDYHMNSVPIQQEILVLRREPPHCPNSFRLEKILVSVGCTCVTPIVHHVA
How it was run: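 IL-8 release, quantified by HTRF and normalized to controls, reports IL-17 signaling in HEKa cells treated with compound plus final 3 ng/mL IL-17AA (HEK-derived) and 10 ng/mL TNF-alpha for 68-72 h; TNF-alpha-only wells set 100% inhibition. Four-parameter logistic fits (r^2>0.9) give relative IC50 and Emax; PrestoBlue flags cytotoxicity.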

EC50 [nM]	SMILES
100 to 1000	Cc1n[nH]c(C)c1-c1ccc(NC(=O)[C@@H](NC(=O)c2cnnn2C)C2CCCCCC2)cc1 [Example 62, N-[(1S)-1-cycloheptyl-2-[4-(3,5-dimethyl-1H-pyrazol-4-yl)anilino]-2-oxo-ethyl]-3-methyl-triazole-4-carboxamide]
< 100	Cc1n[nH]c(C)c1-c1ccc(NC(=O)[C@@H](NC(=O)c2cnnn2-c2ccccc2)C2CCCCCC2)cc1 [Example 63, N-[(1S)-1-cycloheptyl-2-[4-(3,5-dimethyl-1H-pyrazol-4-yl)anilino]-2-oxo-ethyl]-3-phenyl-triazole-4-carboxamide]
100 to 1000	Cc1n[nH]c(C)c1-c1ccc(NC(=O)[C@@H](NC(=O)c2c[nH]c3cnccc23)C2CCCCC2)cc1 [Example 64, N-[(1S)-1-cyclohexyl-2-[4-(3,5-dimethyl-1H-pyrazol-4-yl)anilino]-2-oxo-ethyl]-1H-pyrrolo[2,3-c]pyridine-3-carboxamide]
> 1000	Cc1n[nH]c(C)c1-c1ccc(NC(=O)[C@@H](NC(=O)c2c[nH]c3ncccc23)C2CCCCC2)cc1 [Example 65, N-[(1S)-1-cyclohexyl-2-[4-(3,5-dimethyl-1H-pyrazol-4-yl)anilino]-2-oxo-ethyl]-1H-pyrrolo[2,3-b]pyridine-3-carboxamide]
100 to 1000	Cc1n[nH]c(C)c1-c1ccc(NC(=O)[C@@H](NC(=O)C2(F)CC2)C2CCCCC2)cc1 [Example 66, N-[(1S)-1-cyclohexyl-2-[4-(3,5-dimethyl-1H-pyrazol-4-yl)anilino]-2-oxo-ethyl]-1-fluoro-cyclopropanecarboxamide]
> 1000	Cc1n[nH]c(C)c1-c1ccc(NC(=O)[C@@H](NC(=O)C2(F)CC2)C2CCC(F)(F)CC2)cc1 [Example 67, N-[(1S)-1-(4,4-difluorocyclohexyl)-2-[4-(3,5-dimethyl-1H-pyrazol-4-yl)anilino]-2-oxo-ethyl]-1-fluoro-cyclopropanecarboxamide]
100 to 1000	Cc1n[nH]c(C)c1-c1ccc(NC(=O)[C@@H](NC(=O)c2cnn3ccccc23)C2CCCCC2)cc1 [Example 68, N-[(1S)-1-cyclohexyl-2-[4-(3,5-dimethyl-1H-pyrazol-4-yl)anilino]-2-oxo-ethyl]pyrazolo[1,5-a]pyridine-3-carboxamide]
> 1000	Cc1n[nH]c(C)c1-c1ccc(NC(=O)[C@@H](NC(=O)c2conc2-c2ccc(Cl)cc2)C2CCCCC2)cc1 [Example 69, 3-(4-chlorophenyl)-N-[(1S)-1-cyclohexyl-2-[4-(3,5-dimethyl-1H-pyrazol-4-yl)anilino]-2-oxo-ethyl]isoxazole-4-carboxamide]
100 to 1000	Cc1n[nH]c(C)c1-c1ccc(NC(=O)[C@@H](NC(=O)c2cnn3ncccc23)C2CCCCC2)cc1 [Example 70, N-[(1S)-1-cyclohexyl-2-[4-(3,5-dimethyl-1H-pyrazol-4-yl)anilino]-2-oxo-ethyl]pyrazolo[1,5-b]pyridazine-3-carboxamide]
100 to 1000	Cc1n[nH]c(C)c1-c1ccc(NC(=O)[C@@H](NC(=O)c2cn(C)c3ncccc23)C2CCCCC2)cc1 [Example 71, N-[(1S)-1-cyclohexyl-2-[4-(3,5-dimethyl-1H-pyrazol-4-yl)anilino]-2-oxo-ethyl]-1-methyl-pyrrolo[2,3-b]pyridine-3-carboxamide]
> 1000	Cc1n[nH]c(C)c1-c1ccc(NC(=O)[C@@H](NC(=O)c2cnc3ncccn23)C2CCCCC2)cc1 [Example 72, N-[(1S)-1-cyclohexyl-2-[4-(3,5-dimethyl-1H-pyrazol-4-yl)anilino]-2-oxo-ethyl]imidazo[1,2-a]pyrimidine-3-carboxamide]
100 to 1000	Cc1n[nH]c(C)c1-c1ccc(NC(=O)[C@@H](NC(=O)c2coc3ccccc23)C2CCCCC2)cc1 [Example 73, N-[(1S)-1-cyclohexyl-2-[4-(3,5-dimethyl-1H-pyrazol-4-yl)anilino]-2-oxo-ethyl]benzofuran-3-carboxamide]
100 to 1000	Cc1n[nH]c(C)c1-c1ccc(NC(=O)[C@@H](NC(=O)c2csc3ccccc23)C2CCCCC2)cc1 [Example 74, N-[(1S)-1-cyclohexyl-2-[4-(3,5-dimethyl-1H-pyrazol-4-yl)anilino]-2-oxo-ethyl]benzothiophene-3-carboxamide]
100 to 1000	Cc1n[nH]c(C)c1-c1ccc(NC(=O)[C@@H](NC(=O)c2cnnn2C(C)C)C2CCCCC2)cc1 [Example 75, N-[(1S)-1-cyclohexyl-2-[4-(3,5-dimethyl-1H-pyrazol-4-yl)anilino]-2-oxo-ethyl]-3-isopropyl-triazole-4-carboxamide]
100 to 1000	Cc1n[nH]c(C)c1-c1ccc(NC(=O)[C@@H](NC(=O)c2ccnn2C)[C@@H]2CCc3ccccc32)cc1 [Example 76, N-[(1S)-2-[4-(3,5-dimethyl-1H-pyrazol-4-yl)anilino]-1-[(1R)-indan-1-yl]-2-oxo-ethyl]-2-methyl-pyrazole-3-carboxamide]
100 to 1000	Cc1n[nH]c(C)c1-c1ccc(NC(=O)[C@@H](NC(=O)c2ccnn2C)[C@@H]2CCc3ccc(Cl)cc32)cc1 [Example 77, N-[(1S)-1-[(1R)-6-chloroindan-1-yl]-2-[4-(3,5-dimethyl-1H-pyrazol-4-yl)anilino]-2-oxo-ethyl]-2-methyl-pyrazole-3-carboxamide]

EC50 [nM]	SMILES
> 1000	Cc1n[nH]c(C)c1-c1ccc(NC(=O)[C@@H](NC(=O)c2ccnn2C)[C@@H]2CCc3ccc(C#N)cc32)cc1 [Example 78, N-[(1S)-1-[(1R)-6-cyanoindan-1-yl]-2-[4-(3,5-dimethyl-1H-pyrazol-4-yl)anilino]-2-oxo-ethyl]-2-methyl-pyrazole-3-carboxamide]
< 100	Cc1n[nH]c(C)c1-c1ccc(NC(=O)[C@@H](NC(=O)c2ccnn2C)[C@H]2CCc3ccccc32)cc1 [Example 79, N-[(1S)-2-[4-(3,5-dimethyl-1H-pyrazol-4-yl)anilino]-1-[(1S)-indan-1-yl]-2-oxo-ethyl]-2-methyl-pyrazole-3-carboxamide]
100 to 1000	Cc1n[nH]c(C)c1-c1ccc(NC(=O)[C@@H](NC(=O)c2ccnn2C)[C@H]2CCc3ccc(C#N)cc32)cc1 [Example 80, N-[(1S)-1-[(1S)-6-cyanoindan-1-yl]-2-[4-(3,5-dimethyl-1H-pyrazol-4-yl)anilino]-2-oxo-ethyl]-2-methyl-pyrazole-3-carboxamide]
< 100	Cc1n[nH]c(C)c1-c1ccc(NC(=O)[C@@H](NC(=O)c2ccnn2C)[C@H]2CCCc3ccccc32)cc1 [Example 81, N-[(1S)-2-[4-(3,5-dimethyl-1H-pyrazol-4-yl)anilino]-2-oxo-1-[(1S)-tetralin-1-yl]ethyl]-2-methyl-pyrazole-3-carboxamide]
100 to 1000	Cc1n[nH]c(C)c1-c1ccc(NC(=O)[C@@H](NC(=O)c2ccnn2C)[C@H]2CCCc3ccc(C#N)cc32)cc1 [Example 82, N-[(1S)-1-[(1S)-7-cyanotetralin-1-yl]-2-[4-(3,5-dimethyl-1H-pyrazol-4-yl)anilino]-2-oxo-ethyl]-2-methyl-pyrazole-3-carboxamide]
100 to 1000	Cc1ncn(C)c1-c1ccc(NC(=O)[C@@H](NC(=O)OC(C)(C)C)C2CCCCC2)cc1 [Example 83, tert-butyl N-[(1S)-1-cyclohexyl-2-[4-(3,5-dimethylimidazol-4-yl)anilino]-2-oxo-ethyl]carbamate]
100 to 1000	Cc1ncn(C)c1-c1ccc(NC(=O)C(NC(=O)OC(C)(C)C)C(C2CC2)C2CC2)cc1 (stereo not shown) [Example 84, tert-butyl N-[1-(dicyclopropylmethyl)-2-[4-(3,5-dimethylimidazol-4-yl)anilino]-2-oxo-ethyl]carbamate]
> 1000	Cc1ncn(C)c1-c1ccc(NC(=O)[C@@H](NC(=O)OC(C)(C)C)C2CCCC2)cc1 [Example 87, tert-butyl N-[(1S)-1-cyclopentyl-2-[4-(3,5-dimethylimidazol-4-yl)anilino]-2-oxo-ethyl]carbamate]
100 to 1000	Cc1ncn(C)c1-c1ccc(NC(=O)[C@@H](NC(=O)OC(C)(C)C)C2CCCCCC2)cc1 [Example 88, tert-butyl N-[(1S)-1-cycloheptyl-2-[4-(3,5-dimethylimidazol-4-yl)anilino]-2-oxo-ethyl]carbamate]
> 1000	CCC(CC)[C@H](NC(=O)OC(C)(C)C)C(=O)Nc1ccc(-c2c(C)ncn2C)cc1 [Example 89, tert-butyl N-[(1S)-1-[[4-(3,5-dimethylimidazol-4-yl)phenyl]carbamoyl]-2-ethyl-butyl]carbamate]
> 1000	CC(C)[C@H](NC(=O)OC(C)(C)C)C(=O)Nc1ccc(-c2cncn2C)cc1 [Example 91, tert-butyl N-[(1S)-2-methyl-1-[[4-(3-methylimidazol-4-yl)phenyl]carbamoyl]propyl] carbamate]
> 1000	Cn1cncc1-c1ccc(NC(=O)[C@@H](NC(=O)OC(C)(C)C)C2CCC2)cc1 [Example 92, tert-butyl N-[(1S)-1-cyclobutyl-2-[4-(3-methylimidazol-4-yl)anilino]-2-oxo-ethyl]carbamate]
> 1000	Cn1cncc1-c1ccc(NC(=O)[C@H](CC2CCCCC2)NC(=O)OC(C)(C)C)cc1 [Example 93, tert-butyl N-[(1S)-1-(cyclohexylmethyl)-2-[4-(3-methylimidazol-4-yl)anilino]-2-oxo-ethyl]carbamate]
> 1000	CCC(C)[C@H](NC(=O)OC(C)(C)C)C(=O)Nc1ccc(-c2cncn2C)cc1 (stereo partly drawn) [Example 94, tert-butyl N-[(1S)-2-methyl-1-[[4-(3-methylimidazol-4-yl)phenyl]carbamoyl]butyl] carbamate]
> 1000	Cn1cncc1-c1ccc(NC(=O)[C@H](Cc2ccccc2)NC(=O)OC(C)(C)C)cc1 [Example 95, tert-butyl N-[(1S)-1-benzyl-2-[4-(3-methylimidazol-4-yl)anilino]-2-oxo-ethyl]carbamate]
